In article PMC10611510, “Teicoplanin associated gene tcaA inactivation increases persister cell formation in Staphylococcus aureus” (Frontiers in Microbiology, 2023):
≈ marks a conversion by molar mass, not a printed value. Entries after “also recorded” stand apart in the source; their conditions may differ. Where two headings read alike, the source gives them in different places.

Tests used:
[1] = test system: S. aureus WT; assay: microbe, parasite or virus in culture; type: cell-based, Staphylococcus aureus
[2] = test system: ΔtcaA; assay: MIC, two-fold broth microdilution (CLSI); type: cell-based; settings: Staphylococcus aureus
[3] = test system: ΔtcaA; assay: Antibiotic susceptibility testing (inhibition zones); type: cell-based, Staphylococcus aureus; settings: 100 fold MIC, 2 × 10^9 CFU/mL, 37°C, inhibition zones after 24–36 h; Supplementary Figure S1
[4] = test system: C-ΔtcaA; assay: Growth curve analysis; type: cell-based, Staphylococcus aureus; settings: OD600, 37°C
Method: (§1) The overnight culture was 100 times diluted in TSB medium and a 200 μL was inoculated into a 96-well microtiter plate. The plates were incubated at 37°C with shaking at 200 rpm. At different time intervals (1–18 and 24 h), OD600 was measured using a microplate reader (Thermo Fisher, Waltham, MA, USA).

[5] = test system: MRSA MW2; assay: Growth curve analysis; type: cell-based, Staphylococcus aureus; settings: OD600, 37°C
Method: as §1

[6] = test system: S. aureus WT; assay: Growth curve analysis; type: cell-based, Staphylococcus aureus; settings: OD600, 37°C
Method: as §1

[7] = test system: ΔtcaA; assay: Growth curve analysis; type: cell-based, Staphylococcus aureus; settings: OD600, 37°C
Method: as §1

[8] = test system: ΔtcaA
Method: (§2) A persistence assay was adopted from our previous protocol ([Habib et al., 2020]). The cells were grown to OD600 = 0.40 in the TSB medium. The pSD1 containing dCas9-tcaA and dCas9-tcaB were induced with ATC 100 ng/mL for 1 h, the medium was removed, and fresh TSB and antibiotic were added whereas ΔtcaA cells were challenged with antibiotic at OD600 = 0.40. After 12 h, a 200 μL sample was taken and CFU counting was performed. Each antibiotic concentration was 10 fold of MIC, and S. aureus WT and S. aureus WT-dCas9 were used as controls.

[9] = test system: resistant isolates; settings: ref Wang Y. et al., 2017; cited from earlier work
Excerpt: Glycopeptide resistance in MRSA is a global problem and vancomycin- and teicoplanin-resistant strains are of major clinical relevance. Several studies have reported the emergence of teicoplanin and vancomycin resistance in S. aureus ([Wang Y. et al., 2017]; [Szymanek-Majchrzak et al., 2018]; [Wu et al., 2021]). Typically, teicoplanin and vancomycin bind to D-alanine-D-alanine subunits of the murein monomer and cross resistance could develop between teicoplanin and vancomycin ([Bakthavatchalam et al., 2019]). The cell wall thickness also contributed to the development of vancomycin and teicopla ...

[10] = test system: penicillin binding protein-2 (pbp2) ectopic expression; settings: ref Sieradzki et al., 1998, cited from earlier work; for MIC after the increase: end value of the increase associated with pbp2 ectopic expression; for MIC before the increase: start value of the increase associated with pbp2 ectopic expression
Excerpt: Staphylococcus aureus has two major types of resistant strains, namely, methicillin-resistant S. aureus (MRSA) and vancomycin-resistant S. aureus (VRSA). MRSA is considered the major cause of hospital and community-acquired infections ([Aqib and Rodriguez-Morales, 2021]) and is largely treated with glycopeptides. However, the emergence of teicoplanin resistance, vancomycin-intermediate S. aureus (VISA), and VRSA has made the clinical treatment unsuccessful and increased death rates across the world ([Howden et al., 2010]). S. aureus resistant to glycopeptides are a serious threat to public hea ...

[11] = test system: dCas9-tcaA; assay: Persister assay; settings: dCas9-tcaA vs WT-dCas9, 10-fold MIC, CFU counting; for Surviving fraction of cells (persisters), fold relative to control: after 12 h, triplicates; for Increase in persister cells, fold relative to control: after 48 h
Method: as §2

[12] = test system: dCas9-tcaB; assay: Persister assay; settings: dCas9-tcaB vs WT-dCas9 and WT; 10-fold MIC
Method: as §2

[13] = test system: ΔtcaA; assay: Fluorescence microscopy of persister cell resuscitation (GFP); settings: 20-fold MIC for 48 h, washed, fresh TSB 2 h at 37°C; ΔtcaA compared to WT
Method: Fluorescence microscopy was used to observe the persister cell resuscitation ability of the whole population. […] The cells were harvested, washed with ddH2O, and resuspended in TSB media. The cells were grown for 2 h at 37°C and the S. aureus WT and ΔtcaA were observed under the fluorescence microscope.

[14] = test system: ΔtcaA; assay: Persister assay
Method: as §2

[15] = C-ΔtcaA complementary strain, 1 mg/L
[16] = ΔtcaA complementary strain, 2 mg/L

| Compound | Susceptibility of the isolate (in words) [1] | MIC ([1]; Staphylococcus aureus) [µg/mL] | MIC [2] [µg/mL] | Susceptibility of ΔtcaA (in words) [3] | Growth in TSB with antibiotic (in words) [4, 15] | Growth in TSB with antibiotic (in words) [4, 16] | Growth in TSB with antibiotic (in words) ([5]; 1 mg/L) | Growth in TSB with antibiotic (in words) ([5]; 2 mg/L) | Growth in TSB with antibiotic (in words) ([6]; 1 mg/L) | Growth in TSB with antibiotic (in words) ([6]; 2 mg/L) | Growth in TSB with antibiotic (in words) ([7]; 1 mg/L) | Growth in TSB with antibiotic (in words) ([7]; 2 mg/L) | MIC [9] [µg/mL] | MIC after the increase [10] [µg/mL] | MIC before the increase [10] [µg/mL] | Surviving fraction of cells (persisters), fold relative to control [11] [fold] | Increase in persister cells, fold relative to control [11] [fold] | Persister cell formation relative to controls (in words) [12] | GFP-expressing cells after antibiotic removal (resuscitation) [13] | further results |
| --- | --- | --- | --- | --- | --- | --- | --- | --- | --- | --- | --- | --- | --- | --- | --- | --- | --- | --- | --- | --- |
| CC[C@H]1OC(=O)[C@H](C)[C@@H](O[C@H]2C[C@@](C)(OC)[C@@H](O)[C@H](C)O2)[C@H](C)[C@@H](O[C@@H]2O[C@H](C)C[C@H](N(C)C)[C@H]2O)[C@](C)(O)C[C@@H](C)CN(C)[C@H](C)[C@@H](O)[C@]1(C)O [Azithromycin] | sensitive | ≤ 8 | ≤ 8 | did not affect |  |  |  |  |  |  |  |  |  |  |  |  |  |  |  |  |
| COc1cccc(OC)c1C(=O)N[C@@H]1C(=O)N2[C@@H]1SC(C)(C)[C@@H]2C(=O)O [Methicillin] | resistant | > 512 | ≥ 256 |  |  |  |  |  |  |  |  |  |  |  |  |  |  |  |  |  |
| CN[C@H](CC(C)C)C(=O)N[C@H]1C(=O)N[C@@H](CC(N)=O)C(=O)N[C@H]2C(=O)N[C@H]3C(=O)N[C@H](C(=O)N[C@H](C(=O)O)c4cc(O)cc(O)c4-c4cc3ccc4O)[C@H](O)c3ccc(c(Cl)c3)Oc3cc2cc(c3O[C@@H]2O[C@H](CO)[C@@H](O)[C@H](O)[C@H]2O[C@H]2C[C@](C)(N)[C@H](O)[C@H](C)O2)Oc2ccc(cc2Cl)[C@H]1O [Vancomycin] | resistant | 10 (≈ 6.9 µM) |  | resistance; also recorded: susceptibility was decreased | fast and steady growth | slow growth | slow growth rates | did not show any growth | fast and steady growth | slow growth | fast and steady growth | slow growth | 2 (≈ 1.38 µM) | 2 (≈ 1.38 µM) | 1 (≈ 0.69 µM) | 15 | 10 | did not induce persister cell formation | high number of cells expressing GFP in ΔtcaA cells compared to WT | Increase in persister cells, fold (tcaA persistence assay, summary) [8]: 10–11 fold; Increase in persister cells, fold relative to control [8]: 11 fold |
| Teicoplanin | resistant |  |  | resistance; also recorded: susceptibility was decreased | fast and steady growth | slow growth | slow growth rates | did not show any growth | fast and steady growth | slow growth | fast and steady growth | slow growth | 16 | 8 | 2 | 17 | 13 | did not induce persister cell formation | high number of cells expressing GFP in ΔtcaA cells compared to WT | MIC [1]: 16 µg/mL; Increase in persister cells, fold (tcaA persistence assay, summary) ([14]; summary over dCas9-tcaA and ΔtcaA, discussion): 13–14 fold; Surviving fraction of cells (persisters), fold relative to control ([14]; ΔtcaA vs WT, 10-fold MIC, after 12 h, CFU counting, triplicates): 18 fold; Increase in persister cells, fold relative to control ([14]; ΔtcaA vs WT, 10-fold MIC, after 48 h, CFU counting): 14 fold |
